This note sets out measurements from patent US20240109917A1 (ACTELION PHARMACEUTICALS LTD, priority 2020, published 2024).

The structures appear in SMILES notation. Read-outs that look alike come from different tables or passages of the source.

For experiment [1], the target named is His6-TEV-PDGFRβ (557-1016) (Homo sapiens (Human), UniProt P09619). Nature of the experiment: PDGFRβ HTRF Assay. The experiment is classed as biochemical. Conditions: read-out: PDGFR HTRF IC50. In a few lines: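 Human PDGFRβ (557-1016) pre-incubated with compound for 30 min at RT in pH 7.5 HEPES/MgCl2/EGTA/Brij-35/DTT buffer. Reaction started with ATP and TK-biotin peptide, run 3 h at RT, then quenched with EDTA-containing Eu-cryptate antibody/streptavidin-XL665. HTRF 665/620 nm ratio read after 60 min; percent inhibition relative to DMSO and 10 μM imatinib controls.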
(In general: In TR-FRET formats the signal depends on donor and acceptor labels being close together.)

The target of experiment [2] is PDGFRβ (Rattus norvegicus (Rat), UniProt Q05030). In words: PDGFRβ Cellular Assay (PDGFRb P-Y751 HTRF in A10 cells stimulated with PDGF-BB). It is filed as cell-based. In a few lines:
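Rat A10 cells, plated overnight, were treated with compound for 3 hours, then stimulated with PDGF-BB (working stock 100 ng/mL in 10% FBS medium). After lysis, PDGFRβ P-Y751 was detected by HTRF.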

His6-TEV-PDGFRβ (557-1016), sequence (P09619 557-1016): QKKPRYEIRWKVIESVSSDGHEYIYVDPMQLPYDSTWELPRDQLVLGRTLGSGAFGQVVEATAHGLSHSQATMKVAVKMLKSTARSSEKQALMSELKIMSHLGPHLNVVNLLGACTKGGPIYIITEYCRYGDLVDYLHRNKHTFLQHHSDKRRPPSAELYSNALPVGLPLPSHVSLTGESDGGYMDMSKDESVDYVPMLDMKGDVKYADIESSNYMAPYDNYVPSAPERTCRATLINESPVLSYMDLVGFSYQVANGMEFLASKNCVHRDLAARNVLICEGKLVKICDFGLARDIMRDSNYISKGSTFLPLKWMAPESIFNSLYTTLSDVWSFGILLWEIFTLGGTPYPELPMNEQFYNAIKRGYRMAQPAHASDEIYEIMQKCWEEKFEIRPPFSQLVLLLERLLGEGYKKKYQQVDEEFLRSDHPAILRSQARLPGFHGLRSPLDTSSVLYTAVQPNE
PDGFRβ, sequence (Q05030 32-1097): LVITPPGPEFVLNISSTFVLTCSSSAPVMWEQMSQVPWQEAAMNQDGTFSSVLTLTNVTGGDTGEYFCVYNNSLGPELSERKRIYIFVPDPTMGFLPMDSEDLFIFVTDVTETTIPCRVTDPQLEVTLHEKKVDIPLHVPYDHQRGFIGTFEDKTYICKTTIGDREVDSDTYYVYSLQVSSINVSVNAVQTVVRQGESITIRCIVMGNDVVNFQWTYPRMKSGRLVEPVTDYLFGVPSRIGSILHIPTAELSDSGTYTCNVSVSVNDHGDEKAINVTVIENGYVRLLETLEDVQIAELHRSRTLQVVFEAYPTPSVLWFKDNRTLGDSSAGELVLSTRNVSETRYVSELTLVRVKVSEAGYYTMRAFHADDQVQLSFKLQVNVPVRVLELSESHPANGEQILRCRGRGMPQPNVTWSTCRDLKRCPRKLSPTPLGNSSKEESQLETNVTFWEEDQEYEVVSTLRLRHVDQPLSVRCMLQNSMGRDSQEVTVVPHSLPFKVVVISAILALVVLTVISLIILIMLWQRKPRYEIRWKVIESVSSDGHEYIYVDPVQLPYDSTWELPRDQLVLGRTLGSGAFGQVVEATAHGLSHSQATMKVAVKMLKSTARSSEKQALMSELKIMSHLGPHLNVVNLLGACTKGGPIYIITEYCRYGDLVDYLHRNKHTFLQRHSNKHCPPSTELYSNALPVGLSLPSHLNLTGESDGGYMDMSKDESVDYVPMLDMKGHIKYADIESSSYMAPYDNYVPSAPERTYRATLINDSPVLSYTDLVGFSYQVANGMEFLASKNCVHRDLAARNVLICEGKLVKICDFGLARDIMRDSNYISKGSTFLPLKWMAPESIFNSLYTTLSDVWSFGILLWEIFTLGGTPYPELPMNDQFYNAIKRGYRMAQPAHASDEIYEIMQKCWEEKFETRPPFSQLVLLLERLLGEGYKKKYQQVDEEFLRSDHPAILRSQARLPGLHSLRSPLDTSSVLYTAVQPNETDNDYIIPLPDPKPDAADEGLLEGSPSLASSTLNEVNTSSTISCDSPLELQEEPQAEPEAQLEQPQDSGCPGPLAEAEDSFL

By IC50 is commonly meant the concentration that inhibits the measured activity by half. Consider `Cc1ncc(NC(=O)CN2C[C@@H](C)O[C@H](C)C2)cc1NC(=O)c1cnn2cc(-c3cnn(CCS(C)(=O)=O)c3)sc12` (relative stereo) [Example 432, N-(5-(2-(trans-2,6-dimethylmorpholino)acetamido)-2-methylpyridin-3-yl)-2-(1-(2-(methylsulfonyl)ethyl)-1H-pyrazol-4-yl)pyrazolo[5,1-b]thiazole-7-carboxamide], for which the IC50 in experiment [1] amounted to 1.1 nM; in experiment [2] (PDGFR Cellular IC50) it was 420 nM.
Turning to `Cc1ncc(NC(=O)CN2C[C@@H](C)O[C@H](C)C2)cc1NC(=O)c1cnn2cc(-c3cnn(C)c3C)sc12` (relative stereo) [Example 433, 2-(1,5-Dimethyl-1H-pyrazol-4-yl)-N-(5-(2-(trans-2,6-dimethylmorpholino)acetamido)-2-methylpyridin-3-yl)pyrazolo[5,1-b]thiazole-7-carboxamide], the IC50 was 0.5 nM in experiment [1] and 5.1 nM in experiment [2] (read-out: PDGFR Cellular IC50).
Turning to `Cc1ncc(NC(=O)CN2CCCC[C@@H]2C)cc1NC(=O)c1cnn2cc(-c3cnn(CCO)c3)sc12` [Example 34, (S)-2-(1-(2-hydroxyethyl)-1H-pyrazol-4-yl)-N-(2-methyl-5-(2-(2-methyl-piperidin-1-yl)acetamido)pyridin-3-yl)pyrazolo[5,1-b]thiazole-7-carboxamide], the IC50 in experiment [1] came to 1.7 nM; in experiment [2] (PDGFR Cellular IC50), 30.3 nM.
Turning to `Cc1cc(C(=O)NCCN2CCCC23CCC3)sc1NC(=O)c1cnn2cc(-c3cnn(C)c3)sc12` [Example 35, N-(5-((2-(5-azaspiro[3.4]octan-5-yl)ethyl)carbamoyl)-3-methylthiophen-2-yl)-2-(1-methyl-1H-pyrazol-4-yl)pyrazolo[5,1-b]thiazole-7-carboxamide], the IC50 in experiment [1] stood at 1.6 nM; in experiment [2] (read-out: PDGFR Cellular IC50), 33.6 nM.
On to `Cc1cc(C(=O)NCCN2CCCC2(C)C)sc1NC(=O)c1cnn2cc(-c3cccnc3)sc12` [Example 36, N-(5-((2-(2,2-dimethylpyrrolidin-1-yl)ethyl)carbamoyl)-3-methylthiophen-2-yl)-2-(pyridin-3-yl)pyrazolo[5,1-b]thiazole-7-carboxamide], for which the figures for the IC50 in experiment [1] and in experiment [2] (read-out: PDGFR Cellular IC50) were 0.5 nM and 9 nM, respectively.
On the same counts, the results for `Cc1cc(C(=O)NCCN2CCCC23CC3)sc1NC(=O)c1cnn2cc(-c3cnn(C)c3)sc12` [Example 37, N-(5-((2-(4-azaspiro[2.4]heptan-4-yl)ethyl)carbamoyl)-3-methylthiophen-2-yl)-2-(1-methyl-1H-pyrazol-4-yl)pyrazolo[5,1-b]thiazole-7-carboxamide] are 22.8 nM and 11.2 nM.
On to `Cc1ncc(NC(=O)NCCN2CCCC2(C)C)cc1NC(=O)c1cnn2cc(-c3cnn(C)c3)sc12` [Example 38, N-(5-(3-(2-(2,2-dimethylpyrrolidin-1-yl)ethyl)ureido)-2-methyl-pyridin-3-yl)-2-(1-methyl-1H-pyrazol-4-yl)pyrazolo[5,1-b]thiazole-7-carboxamide], for which the figures for the IC50 in experiment [1] and in experiment [2] (read-out: PDGFR Cellular IC50) were 1.8 nM and 3000 nM, respectively.
`Cc1ncc(NC(=O)CN2CC(C)(C)C2)cc1NC(=O)c1cnn2cc(-c3cnn4c3OCCC4)sc12` [Example 39, 2-(6,7-dihydro-5H-pyrazolo[5,1-b][1,3]oxazin-3-yl)-N-(5-(2-(3,3-dimethylazetidin-1-yl)acetamido)-2-methylpyridin-3-yl)pyrazolo[5,1-b]thiazole-7-carboxamide]: the IC50 in experiment [1] turned out to be 0.3 nM; in experiment [2] (read-out: PDGFR Cellular IC50), 2 nM.
On the same counts, the results for `COc1ccncc1-c1cn2ncc(C(=O)Nc3cc(NC(=O)CN4CC(C)(C)C4)cnc3C)c2s1` [Example 40, N-(5-(2-(3,3-dimethylazetidin-1-yl)acetamido)-2-methylpyridin-3-yl)-2-(4-methoxypyridin-3-yl)pyrazolo[5,1-b]thiazole-7-carboxamide] are 0.27 nM and 2 nM.
On the same counts, the results for `COCCn1cc(-c2cn3ncc(C(=O)Nc4cc(NC(=O)CCN5CCCC5(C)C)cnc4C)c3s2)cn1` [Example 41, N-(5-(3-(2,2-dimethylpyrrolidin-1-yl)propanamido)-2-methylpyridin-3-yl)-2-(1-(2-methoxyethyl)-1H-pyrazol-4-yl)pyrazolo[5,1-b]thiazole-7-carboxamide] are 0.43 nM and 10 nM.
`Cc1ncc(NC(=O)CN2CCC23CCC3)cc1NC(=O)c1cnn2cc(-c3cnn4c3OCCC4)sc12` [Example 408, N-(5-(2-(1-azaspiro[3.3]heptan-1-yl)acetamido)-2-methylpyridin-3-yl)-2-(6,7-dihydro-5H-pyrazolo[5,1-b][1,3]oxazin-3-yl)pyrazolo[5,1-b]thiazole-7-carboxamide]: the values for the IC50 in experiment [1] and in experiment [2] (read-out: PDGFR Cellular IC50) were 0.2 nM and 1.7 nM, respectively.
Taken in the same sequence, the figures for `Cc1ncc(NC(=O)CN2CC(C)(C)C2)cc1NC(=O)c1cnn2cc(-c3cnn4c3CCC4)sc12` [Example 409, 2-(5,6-dihydro-4H-pyrrolo[1,2-b]pyrazol-3-yl)-N-(5-(2-(3,3-dimethylazetidin-1-yl)acetamido)-2-methylpyridin-3-yl)pyrazolo[5,1-b]thiazole-7-carboxamide] were 0.2 nM and 1.6 nM.
Turning to `Cc1ncc(NC(=O)CN2CC(C)(C)C2)cc1NC(=O)c1cnn2cc(-c3ccnnc3C)sc12` [Example 410, N-(5-(2-(3,3-dimethylazetidin-1-yl)acetamido)-2-methylpyridin-3-yl)-2-(3-methylpyridazin-4-yl)pyrazolo[5,1-b]thiazole-7-carboxamide], the IC50 in experiment [1] was determined as 6.2 nM; in experiment [2] (PDGFR Cellular IC50), 270 nM.
For `Cc1ncc(NC(=O)CN2CC3(COC3)C2)cc1NC(=O)c1cnn2cc(-c3cnn4c3OCCC4)sc12` [Example 411, N-(5-(2-(2-oxa-6-azaspiro[3.3]heptan-6-yl)acetamido)-2-methylpyridin-3-yl)-2-(6,7-dihydro-5H-pyrazolo[5,1-b][1,3]oxazin-3-yl)pyrazolo[5,1-b]thiazole-7-carboxamide], the IC50 in experiment [1] is 0.5 nM; in experiment [2] (read-out: PDGFR Cellular IC50), 114 nM.
Taken in the same sequence, the figures for `Cc1ncc(NC(=O)CN2CCC2)cc1NC(=O)c1cnn2cc(-c3cnn4c3OCCC4)sc12` [Example 412, N-(5-(2-(azetidin-1-yl)acetamido)-2-methylpyridin-3-yl)-2-(6,7-dihydro-5H-pyrazolo[5,1-b][1,3]oxazin-3-yl)pyrazolo[5,1-b]thiazole-7-carboxamide] were 1.4 nM and 77.2 nM.
On the same counts, the results for `Cc1ncc(NC(=O)CN2CCC[C@@H]2C)cc1NC(=O)c1cnn2cc(-c3cnn4c3OCCC4)sc12` [Example 413, (S)-2-(6,7-dihydro-5H-pyrazolo[5,1-b][1,3]oxazin-3-yl)-N-(2-methyl-5-(2-(2-methylpyrrolidin-1-yl)acetamido)pyridin-3-yl)pyrazolo[5,1-b]thiazole-7-carboxamide] are 0.3 nM and 3.4 nM.
Taken in the same sequence, the figures for `Cc1ncc(NC(=O)CNCC(C)C)cc1NC(=O)c1cnn2cc(-c3cnn4c3OCCC4)sc12` [Example 414, 2-(6,7-dihydro-5H-pyrazolo[5,1-b][1,3]oxazin-3-yl)-N-(5-(2-(isobutylamino)acetamido)-2-methylpyridin-3-yl)pyrazolo[5,1-b]thiazole-7-carboxamide] were 0.4 nM and 6.2 nM.
On to `Cc1ncc(NC(=O)CN2CC(C)(C)C2)cc1NC(=O)c1cnn2cc(-c3cnc4n3CCOC4)sc12` [Example 415, 2-(5,6-dihydro-8H-imidazo[2,1-c][1,4]oxazin-3-yl)-N-(5-(2-(3,3-dimethylazetidin-1-yl)acetamido)-2-methylpyridin-3-yl)pyrazolo[5,1-b]thiazole-7-carboxamide], for which the results for the IC50 in experiment [1] and in experiment [2] (read-out: PDGFR Cellular IC50) were 0.5 nM and 41.5 nM, respectively.
On the same counts, the results for `Cc1ncc(NC(=O)CN2CCC[C@@H]2C)cc1NC(=O)c1cnn2cc(-c3cnn4c3CCC4)sc12` [Example 416, (S)-2-(5,6-dihydro-4H-pyrrolo[1,2-b]pyrazol-3-yl)-N-(2-methyl-5-(2-(2-methylpyrrolidin-1-yl)acetamido)pyridin-3-yl)pyrazolo[5,1-b]thiazole-7-carboxamide] are 0.2 nM and 2.3 nM.
On to `Cc1ncc(NC(=O)CN2CCCC23CCC3)cc1NC(=O)c1cnn2cc(-c3cnn4c3COCC4)sc12` [Example 417, N-(5-(2-(5-azaspiro[3.4]octan-5-yl)acetamido)-2-methylpyridin-3-yl)-2-(6,7-dihydro-4H-pyrazolo[5,1-c][1,4]oxazin-3-yl)pyrazolo[5,1-b]thiazole-7-carboxamide], for which the IC50 in experiment [1] stood at 0.4 nM; in experiment [2] (PDGFR Cellular IC50), 2.6 nM.
Take `Cc1ncc(NC(=O)CN2CCCC23CCC3)cc1NC(=O)c1cnn2cc(-c3cnc4n3CCOC4)sc12` [Example 418, N-(5-(2-(5-azaspiro[3.4]octan-5-yl)acetamido)-2-methylpyridin-3-yl)-2-(5,6-dihydro-8H-imidazo[2,1-c][1,4]oxazin-3-yl)pyrazolo[5,1-b]thiazole-7-carboxamide]: the IC50 in experiment [1] turned out to be 0.5 nM; in experiment [2] (read-out: PDGFR Cellular IC50), 6.5 nM.
On the same counts, the results for `Cc1ncc(NC(=O)CN2CCCCC2)cc1NC(=O)c1cnn2cc(-c3cnn4c3OCCC4)sc12` [Example 419, 2-(6,7-dihydro-5H-pyrazolo[5,1-b][1,3]oxazin-3-yl)-N-(2-methyl-5-(2-(piperidin-1-yl)acetamido)pyridin-3-yl)pyrazolo[5,1-b]thiazole-7-carboxamide] are 0.3 nM and 2.6 nM.
Taken in the same sequence, the figures for `Cc1ncc(NC(=O)CN2CCCCCC2)cc1NC(=O)c1cnn2cc(-c3cnn4c3OCCC4)sc12` [Example 420, N-(5-(2-(azepan-1-yl)acetamido)-2-methylpyridin-3-yl)-2-(6,7-dihydro-5H-pyrazolo[5,1-b][1,3]oxazin-3-yl)pyrazolo[5,1-b]thiazole-7-carboxamide] were 0.2 nM and 2.1 nM.
